Results published in US10294262B2, “7-deazapurine nucleosides for therapeutic uses” (Institute of Organic Chemistry and Biochemistry ASCR, V.V.I., priority 2009, dated 2019).
Values belong to the molecule of their own block, whether it stands above or below them.

Legend:
human tumor cell lines = experiment: Tests A and B, all tumor cell lines together; format: cell-based; conditions: read-out: CC50 Geometric mean all
Protocol: (§1) • 1. […] Fix one plate of each cell line with TCA. […] Discard TCA from the plates by flicking them gently. […] Store the plates at room temperature. These plates represent cell counts on day zero. • 4. […] Add 50 μL of the diluted compounds per well. […] Fix the plates with TCA. […] Discard TCA from the plates by flicking them gently. […] Leave at room temperature for 30 minutes. • 9. Flick the plates gently to discard SRB.
Plates were incubated for 5 days with tested compounds.

HCT15 = experiment: Test A: Cytostatic cell culture assay (CC50), SRB, solid tumor cell lines; format: cell-based; conditions: Homo sapiens, HCT-15, 120 h, read-out: CC50 Colon HCT15
Protocol: (§2) Gemcitabine is obtained from Moravek Biochemicals (Brea, Calif.)
as §1

NCI H23 = experiment: as above; format: cell-based; conditions: Homo sapiens, NCI-H23, 120 h, read-out: CC50 Lung NCI H23
Protocol: as §2, §1

HCT116 = experiment: as above; format: cell-based; conditions: Homo sapiens, HCT-116, 120 h, read-out: CC50 Colon HCT116
Protocol: as §2, §1

Du145 = experiment: as above; format: cell-based; conditions: Homo sapiens, DU-145, 120 h, read-out: CC50 Prostate Du145
Protocol: as §2, §1

HS578 = experiment: as above; format: cell-based; conditions: Homo sapiens, Hs578, 120 h, read-out: CC50 Breast HS578
Protocol: as §2, §1

PC3 = experiment: as above; format: cell-based; conditions: Homo sapiens, PC-3, 120 h, read-out: CC50 Prostate PC3
Protocol: as §2, §1

A549 = experiment: as above; conditions: Homo sapiens, A549, 120 h, read-out: CC50 Lung A549
Text: Test A: Cytostatic Cell Culture Assay (CC50) for Solid Tumor Cell Lines
This assay is based on quantification of cell mass determination by a colorimetric detection of the cell associated proteins. The assay relies on the ability of sulforhodamine B (SRB) to bind to protein components of cells that have been fixed to tissue-culture plates by trichloroacetic acid (TCA). SRB is a bright-pink aminoxanthene dye with two sulfonic groups that bind to basic amino-acid residues under mild acidic conditions, and dissociate under basic conditions. As the binding of SRB is stochiometric, the amount of dye extracted from stained cells is directly proportional to the cell mass.
Cell lines: All cell lines are obtained from ATCC (Manassas, Va.). Cultivation media containing Glutamax, and trypsin are purchased from Invitrogen (Carlsbad, Calif.). Doxorubicin, Tubercidin, Clofarabine, TCA and SRB are from Sigma-Aldrich (St. Louis, Mo.). Gemcitabine is obtained from Moravek Biochemicals (Brea, Calif.)
• 1. Trypsinize the sub-confluent cells, count them, and adjust the cell concentrations according to the cell counts listed in Table 1. • 2. Distribute the cells into the 96-well plates in 150 μL of media. Incubate the plates overnight in humidified CO2 incubator at 37° C. • 3. Fix one plate of each cell line with TCA. Discard the cultivation media from the plates by flicking them gently and add 100 μL cold 10% (vol/vol) TCA to each well. Incubate the plates at 4 degree refrigerator for 1 hour. Discard TCA from the plates by flicking them gently. Rinse plates four times in a washing basin containing tap water. Store the plates at room temperature. These plates represent cell counts on day zero. • 4. Prepare a set of medium solutions containing various concentrations of tested compounds by making 5-fold serial dilutions in 96-well plate. Add 50 μL of the diluted compounds per well. Include controls with untreated cells and cells treated with doxorubicin, tubercidin, clofarabine and/or gemcitabine. • 5. Incubate the plates for 5 days at 37° C. • 6. Fix the plates with TCA. Discard the cultivation media from the plates by flicking them gently and add 100 μL cold 10% (vol/vol) TCA to each well. Incubate the plates at 4 degree refrigerator for 1 hour. Discard TCA from the plates by flicking them gently. Rinse plates four times in a washing basin containing tap water. • 7. Remove excess water by tapping the plates face down, gently on a paper towel. Allow the plates to air-dry at room temperature. • 8. Add 100 μL of 0.057% SRB solution in 1% (vol/vol) acetic acid to each well of the plates fixed with TCA on day zero and five. Leave at room temperature for 30 minutes. • 9. Flick the plates gently to discard SRB. Rinse the plates four times with 1% (vol/vol) Acetic Acid. • 10. Store the plates at 37° incubator to facilitate faster drying. • 11. Once the plates are completely dry, add 200 μL of 10 mM Tris base solution (pH 10.5) to each well. Leave at room temperature for 30 minutes for SRB to solubilize. • 12. Measure the OD at 500 nm in a microplate reader. • 13. Calculate the percentage of cell-growth inhibition using the next formula: % of control cell growth=100×(ODsample−mean ODday0)/(ODneg control−mean ODday0). For CC50 determination, plot a dose-response curves between the compound concentration and percent of growth inhibition. CC50 values can be derived by fitting dose-response curves using sigmoidal dose response equation.

[1] = test system: MT-4 T-lymphoid cell line; experiment: Test B: Cytostatic cell culture assay (CC50), CellTiter Glo, lymphoid tumor cell lines; conditions: Homo sapiens, MT4, 120 h, read-out: CC50 T-lymphoid MT-4
Protocol: Test B: Cytostatic Cell Culture Assay (CC50) for Lymphoid Tumor Cell Lines
This test is typically performed with cell lines that are derived from hematological tumors and grow in suspension. An example of such cell line is human MT-4 T-lymphoid cell line used for the determination of cytostatic activity of tested compounds. […] Cells were passaged in suspension twice a week and maintained at densities below 500,000 cells/mL. For CC50 determination, cells were seeded into 384-well plates at 2,000 cells/well in 20 μL of culture medium. Compounds were serially diluted in culture medium and added in triplicate to a final assay volume of 40 μL/well. Plates were incubated for 5 days with tested compounds. At the end of incubation, cell viability was determined by addition of 40 μL of CellTiter Glo reagent followed by a luminescence read-out.
Data analysis and CC50 value calculations were done using GraphPad Prism software (GraphPad Software, San Diego, Calif.) by applying nonlinear regression.

BT549 = experiment: Test A: Cytostatic cell culture assay (CC50), SRB, solid tumor cell lines; format: cell-based; conditions: Homo sapiens, BT-549, 120 h; BT549 breast tumor cells, 5 days, SRB; read-out: CC50 Breast BT549
Protocol: as §2, §1

Compound: Nc1nc(Cl)nc2c1ncn2[C@@H]1O[C@H](CO)[C@@H](O)[C@@H]1F [Clofarabine, reference compound]
CC50 (human tumor cell lines): 116 nM
CC50 (HCT15): 180 nM
CC50 (NCI H23): 40 nM
CC50 (HCT116): 106 nM
CC50 (Du145): 125 nM
CC50 (HS578): 1240 nM
CC50 (PC3): 63 nM
CC50 (A549): 86 nM
CC50 [1]: 51 nM

Compound: COc1ccc(-c2cn([C@@H]3O[C@H](CO)[C@@H](O)[C@H]3O)c3ncnc(N)c23)cc1 [Compound 2b, 4-Amino-5-(4-methoxyphenyl)-7-(β-D-ribofuranosyl)-7H-pyrrolo[2,3-d]pyrimidine]
CC50 (human tumor cell lines): 768 nM
CC50 (HCT15): 544 nM
CC50 (NCI H23): 856 nM
CC50 (HCT116): 633 nM
CC50 (Du145): 152 nM
CC50 (HS578): 811 nM
CC50 (PC3): 1110 nM
CC50 (A549): 701 nM
CC50 [1]: 4300 nM

Compound: Nc1ncnc2c1c(-c1ccco1)cn2[C@@H]1O[C@H](CO)[C@@H](O)[C@H]1O [Compound 2f, 4-Amino-5-(furan-2-yl)-7-(β-D-ribofuranosyl)-7H-pyrrolo[2,3-d]pyrimidine]
CC50 (human tumor cell lines): 25.6 nM
CC50 (HCT15): 3 nM
CC50 (NCI H23): 294 nM
CC50 (HCT116): 48 nM
CC50 (Du145): 19 nM
CC50 (HS578): 17 nM
CC50 (PC3): 4 nM
CC50 (A549): 35 nM
CC50 [1]: 86 nM

Compound: Nc1ncnc2c1c(-c1cccs1)cn2[C@@H]1O[C@H](CO)[C@@H](O)[C@H]1O [Compound 2g, 4-Amino-7-(β-D-ribofuranosyl)-5-(thiophen-2-yl)-7H-pyrrolo[2,3-d]pyrimidine]
CC50 (human tumor cell lines): 22.6 nM
CC50 (HCT15): 11 nM
CC50 (NCI H23): 3.7 nM
CC50 (HCT116): 2.6 nM
CC50 (Du145): 133 nM
CC50 (HS578): 12 nM
CC50 (PC3): 1620 nM
CC50 (A549): 7 nM
CC50 [1]: 35 nM

melting point: 205 to 207 °C
Compound: Nc1ncnc2c1c(-c1ccc[nH]1)cn2[C@@H]1O[C@H](CO)[C@@H](O)[C@H]1O [Compound 2k, 4-Amino-5-(1H-pyrrol-2-yl)-7-(β-D-ribofuranosyl)-7H-pyrrolo[2,3-d]pyrimidine]
CC50 (human tumor cell lines): 128 nM
CC50 (BT549): 129 nM
CC50 (NCI H23): 333 nM
CC50 (HCT116): 65.2 nM
CC50 (HS578): 113 nM
CC50 (PC3): 87.8 nM
CC50 (A549): 160 nM

Compound: Nc1ccn([C@@H]2O[C@H](CO)[C@@H](O)C2(F)F)c(=O)n1 [Gemcitabine, reference compound]
CC50 (human tumor cell lines): 2.4 nM
CC50 (HCT15): 3 nM
CC50 (BT549): 1 nM
CC50 (NCI H23): 2 nM
CC50 (HCT116): 2 nM
CC50 (Du145): 3 nM
CC50 (HS578): 1 nM
CC50 (PC3): 6 nM
CC50 (A549): 7 nM
CC50 [1]: 2 nM

Compound: Nc1ncnc2c1ccn2[C@@H]1O[C@H](CO)[C@@H](O)[C@H]1O [Tubercidin, reference compound]
CC50 (human tumor cell lines): 10.3 nM
CC50 (HCT15): 11 nM
CC50 (NCI H23): 11 nM
CC50 (HCT116): 1 nM
CC50 (Du145): 18 nM
CC50 (HS578): 98 nM
CC50 (PC3): 48 nM
CC50 (A549): 1 nM
CC50 [1]: 21 nM
